Structures can show the parent of a compound that is named as a salt. Where two headings read alike, the source gives them in different places.
Key:
[1] = system: mouse primary DRG neurons; assay: Neurite outgrowth assay of DRG neurons (image-based HCS) against paclitaxel-induced neurotoxicity; assay type: cell-based; conditions: for activation at 1 µM: Mus musculus, DRG neuron; for protective efficacy against paclitaxel-induced neurotoxicity (in words): pretreated, + 50 nM paclitaxel
Method: All these 19 compounds were then subjected to the neurite outgrowth assay of dorsal root ganglion (DRG) neurons paired with an image-based HCS to analyze whether they had neuroprotective potential. Quantification of neurite outgrowth under different regimens is shown in Figure 3, wherein DRG neurons incubated in 50 nM paclitaxel could cause 60% reduction in neurite outgrowth compared to the control (no drug treatment). […] Taken together, CN016 is selected as a promising lead for further development.
(§1) Primary cortical or DRG cells were fixed with 4% paraformaldehyde for 15 min following compound and paclitaxel treatment. After washing with PBS, the fixed cells were permeabilized with PBS containing 0.05% Triton X-100 for 20 min and then blocked with commercial blocking buffer (#GTX30963; GeneTex, USA) at room temperature for 1 h. Subsequently, the cortical cells were stained for the extending processes and synaptic puncta by using anti-MAP2 (#MBS502140, 1:500; Mybiosource, USA) and anti-synaptophysin (#ab32127, 1:500; Abcam, UK) overnight. DRG cells were stained for the neurite and neuron nucleus by using anti-β III tubulin (#D71G9, 1:600; Cell Signaling, USA) and anti-NeuN monoclonal antibody (#MAB377, 1:400; Millipore, USA) overnight. On the second day, the samples were washed for 30 min with wash buffer and incubated with secondary antibodies (Alexa-488, 647 1:600; Thermo Fisher, USA) and 4 μg/mL Hoechst 33258 (#94403-1ML, 1:100; Merck, USA) at room temperature for 1 h. In the initial experiments of screening the potential neuroprotective compound for CIPN, ImageXpress^Micro (IXM) high-content imaging system (Molecular Devices, USA) driven by MetaXpress software was used. Images of treated cells were automatically acquired by using a 10× objective. Twenty-one images per well were taken in each of three channels (DAPI, FITC, and Cy5) to create a whole view of the entire neural network. The integrity of the neural network was evaluated using TIF images by importing them into MetaXpress software for analysis using the module for multiparameter, such as Neurite Outgrowth, Cell Scoring, and Transfluor. Furthermore, the score of synaptogenesis was analyzed in AcuityXpress software (Molecular Devices, USA).

primary cortical neurons [2] = assay: Synaptogenesis assay of primary cortical neurons (image-based HCS) against paclitaxel-induced neurotoxicity; assay type: cell-based, mouse; conditions: Mus musculus, Primary cortical neuron; for activity at 0.01 µM: read-out: A: Synaptogenesis (% of control) of test compound (10 nM) + paclitaxel (1 μM); for activity at 1 µM: read-out: B: Synaptogenesis (% of control) of test compound (1000 nM) + paclitaxel (1 μM)
Text: (§2) Herein, we wish to report that an in vitro neurite outgrowth assay of cortical neurons integrated with an image-based high-content screening (HCS) platform is used to evaluate a commercially available library of 78 minoxidil-related derivatives,[22] leading to the identification of a series of analogues able to prevent or alleviate paclitaxel-induced neurotoxicity. The project began with screening compounds with the primary culture of cortical neurons from neonatal mice. More specifically, cerebral cortex neurons cultured from P0 C57BL/6J mouse pups were incubated with a test compound (10 and 1000 nM) prior to paclitaxel (1 μM) treatment. Subsequently, both neurite outgrowth and synaptogenesis were measured to evaluate the test compounds’ neuroprotective capacity. […] This unique feature is preserved for the core-structure screening of our in-house library in the following subject. Moreover, the substituent at the C4 position appears flexible in terms of structural diversity. Collectively, CSV0A024807, the only one displaying the best neuroprotective potency on both neurite outgrowth and synaptogenesis assays, was thus elected as a potential hit compound for further development.
as §1

primary cortical neurons [3] = assay: Neurite outgrowth assay of primary cortical neurons (image-based HCS) against paclitaxel-induced neurotoxicity; assay type: cell-based, mouse; conditions: Mus musculus, Primary cortical neuron; for activity at 0.01 µM: read-out: C: Neurite outgrowth (% of control) of test compound (10 nM) + paclitaxel (1 μM); for activity at 1 µM: read-out: D: Neurite outgrowth (% of control) of test compound (1000 nM) + paclitaxel (1 μM)
Text: as §2, §1

[4] = Table S2, test compound 1000 nM + paclitaxel 50 nM minus paclitaxel 50 nM, read-out: Neuroprotection rate = (A-B) ± S.E.M [%]
[5] = supplementary CSV, test compound 1000 nM, read-out: A-B (A: neurite outgrowth (% of control) of test compound (1000 nM) + paclitaxel (50 nM), B: of paclitaxel (50 nM))
[6] = Table 1, A: neurite outgrowth (% of control) of test compound 1000 nM + paclitaxel 50 nM, B: paclitaxel 50 nM alone, DRG neurons, read-out: Neuroprotection rate = (A-B)±S.E.M [%]
[7] = test compound 10 nM + paclitaxel 1 μM, mean ± SE
[8] = test compound 1000 nM + paclitaxel 1 μM, mean ± SE

SMILES | activation at 1 µM [1, 4] | activation at 1 µM [1, 5] | also measured
O=C(O)Cn1cc(CNc2nc(NC3CCN(Cc4ccccc4)CC3)cc(N3CCOCC3)n2)nn1 [CN001, (4-{[4-(1-Benzyl-piperidin-4-ylamino)-6-morpholin-4-yl-pyrimidin-2-ylamino]-methyl}-[1,2,3]triazol-1-yl)-acetic Acid Hydrochloride Salt] | -6 ± 0.3% | -6% | 
COC(=O)CCOCCCn1cc(CNc2nc(NC3CCN(Cc4ccccc4)CC3)cc(N3CCOCC3)n2)nn1 [CN002, 3-[3-(4-{[4-(1-Benzyl-piperidin-4-ylamino)-6-morpholin-4-yl-pyrimidin-2-ylamino]-methyl}-[1,2,3]triazol-1-yl)-propoxy]-propionic Acid Methyl Ester] | -4 ± 0.81% | -4% | 
CSCCCn1cc(CNc2nc(NC3CCN(Cc4ccccc4)CC3)cc(N3CCOCC3)n2)nn1 [CN003, N4-(1-Benzyl-piperidin-4-yl)-N2-[1-(3-methylsulfanyl-propyl)-1H-[1,2,3]triazol-4-ylmethyl]-6-morpholin-4-yl-pyrimidine-2,4-diamine] | 1 ± 2.6% | 1% | 
OCCCn1cc(CNc2nc(NC3CCN(Cc4ccccc4)CC3)cc(N3CCOCC3)n2)nn1 [CN004, 3-(4-{[4-(1-Benzyl-piperidin-4-ylamino)-6-morpholin-4-yl-pyrimidin-2-ylamino]-methyl}-[1,2,3]triazol-1-yl)-propan-1-ol] | 1 ± 3.2% | 1% | activation at 1 µM [1, 6]: -1 ± 3.2%
COC(=O)CCOCCCn1cc(CNc2nc(NC3CCN(Cc4ccc5ccccc5c4)CC3)cc(N3CCOCC3)n2)nn1 [CN005, 3-[3-(4-{[4-Morpholin-4-yl-6-(1-naphthalen-2-ylmethyl-piperidin-4-ylamino)-pyrimidin-2-ylamino]-methyl}-[1,2,3]triazol-1-yl)-propoxy]-propionic Acid Methyl Ester] | -3 ± 0.41% | -3% | 
NCCCn1cc(CNc2nc(NC3CCN(C(=O)CCNC(=O)C4(O)CC(O)C(O)C(O)C4)CC3)cc(N3CCOCC3)n2)nn1 (centres unmarked) [CN006, 1,3,4,5-Tetrahydroxy-cyclohexanecarboxylic Acid {3-[4-(2-{[1-(3-Amino-propyl)-1H-[1,2,3]triazol-4-ylmethyl]-amino}-6-morpholin-4-yl-pyrimidin-4-ylamino)-piperidin-1-yl]-3-oxo-propyl}-amide Hydrochloride Salt] | 4 ± 1.44% | 4% | 
O=C(CCNC(=O)C1(O)CC(O)C(O)C(O)C1)N1CCC(Nc2cc(N3CCOCC3)nc(NCc3cn(CCCNCCO)nn3)n2)CC1 (centres unmarked) [CN007, 1,3,4,5-Tetrahydroxy-cyclohexanecarboxylic Acid (3-{4-[2-({1-[3-(2-Hydroxy-ethylamino)-propyl]-1H-[1,2,3]triazol-4-ylmethyl}-amino)-6-morpholin-4-yl-pyrimidin-4-ylamino]-piperidin-1-yl}-3-oxo-propyl)-amide Hydrochloride Salt] | 7 ± 1.05% | 7% | 
NCCOCCn1cc(CNc2nc(NC3CCN(C(=O)CCNC(=O)C4(O)CC(O)C(O)C(O)C4)CC3)cc(N3CCOCC3)n2)nn1 (centres unmarked) [CN008, 1,3,4,5-Tetrahydroxy-cyclohexanecarboxylic Acid (3-{4-[2-({1-[2-(2-Amino-ethoxy)-ethyl]-1H-[1,2,3]triazol-4-ylmethyl}-amino)-6-morpholin-4-yl-pyrimidin-4-ylamino]-piperidin-1-yl}-3-oxo-propyl)-amide Hydrochloride Salt] | 4 ± 1.44% | 4% | 
COC(=O)CCN1CCC(Nc2cc(N3CCOCC3)nc(NCc3cn(CCCO)nn3)n2)CC1 [CN009, 3-[4-(2-{[1-(3-Hydroxy-propyl)-1H-[1,2,3]triazol-4-ylmethyl]-amino}-6-morpholin-4-yl-pyrimidin-4-ylamino)-piperidin-1-yl]-propionic Acid Methyl Ester] | 15 ± 1.28% | 15% | protective efficacy against paclitaxel-induced neurotoxicity (in words) ([1]; DRG neurons): exhibited protective efficacy
COCCCn1cc(CNc2nc(NC3CCN(CCC(=O)OC)CC3)cc(N3CCOCC3)n2)nn1 [CN010, 3-[4-(2-{[1-(3-Methoxy-propyl)-1H-[1,2,3]triazol-4-ylmethyl]-amino}-6-morpholin-4-yl-pyrimidin-4-ylamino)-piperidin-1-yl]-propionic Acid Methyl Ester] | 5 ± 3.06% | 5% | 
COC(=O)CCOCCCn1cc(CNc2nc(NC3CCN(CCC(=O)OC)CC3)cc(N3CCOCC3)n2)nn1 [CN011, 3-{3-[4-({4-[1-(2-Methoxycarbonyl-ethyl)-piperidin-4-ylamino]-6-morpholin-4-yl-pyrimidin-2-ylamino}-methyl)-[1,2,3]triazol-1-yl]-propoxy}-propionic Acid Methyl Ester] | 4 ± 4.1% | 4% | 
CCOP(=O)(CCN1CCC(Nc2cc(N3CCOCC3)nc(NCc3cn(CCCO)nn3)n2)CC1)OCC [CN012, {2-[4-(2-{[1-(3-Hydroxy-propyl)-1H-[1,2,3]triazol-4-ylmethyl]-amino}-6-morpholin-4-yl-pyrimidin-4-ylamino)-piperidin-1-yl]-ethyl}-phosphonic Acid Diethyl Ester] | 9 ± 1% | 9% | activation at 1 µM [1, 6]: 12 ± 1%; protective efficacy against paclitaxel-induced neurotoxicity (in words) ([1]; DRG neurons): exhibited protective efficacy
CCOP(=O)(CCN1CCC(Nc2cc(N3CCOCC3)nc(NCc3cn(CCC(C)(C)O)nn3)n2)CC1)OCC [CN013, {2-[4-(2-{[1-(3-Hydroxy-3-methyl-butyl)-1H-[1,2,3]triazol-4-ylmethyl]-amino}-6-morpholin-4-yl-pyrimidin-4-ylamino)-piperidin-1-yl]-ethyl}-phosphonic Acid Diethyl Ester] | 6 ± 1.17% | 6% | 
CCOP(=O)(CCN1CCC(Nc2cc(N3CCOCC3)nc(NCc3cn(CCC(C)O)nn3)n2)CC1)OCC (centres unmarked) [CN014, {2-[4-(2-{[1-(3-Hydroxy-butyl)-1H-[1,2,3]triazol-4-ylmethyl]-amino}-6-morpholin-4-yl-pyrimidin-4-ylamino)-piperidin-1-yl]-ethyl}-phosphonic Acid Diethyl Ester] | 9 ± 2% | 9% | protective efficacy against paclitaxel-induced neurotoxicity (in words) ([1]; DRG neurons): exhibited protective efficacy
CCCN(CCC)c1cc(NNC(=O)CCc2ccccc2)nc(N(CCC)CCC)n1 [CSV0D043578] |  |  | activity at 0.01 µM (primary cortical neurons [2]): 38 ± 3%; activity at 1 µM (primary cortical neurons [2]): 42 ± 4%; activity at 0.01 µM (primary cortical neurons [3]): 42 ± 5%; activity at 1 µM (primary cortical neurons [3]): 48 ± 1%
CCOc1ccc(Nc2nc(/N=C/c3c(OC)c(C(=O)Nc4ccccc4C)cc4ccccc34)c([N+](=O)[O-])c(NCc3ccccc3)n2)cc1 [CSVOD047961] |  |  | activity at 0.01 µM (primary cortical neurons [2]; [7]): 30 ± 3%; activity at 1 µM (primary cortical neurons [2]; [8]): 36 ± 1%; activity at 0.01 µM (primary cortical neurons [3]; [7]): 90 ± 2%; activity at 1 µM (primary cortical neurons [3]; [8]): 95 ± 2%
